The source of these data is US20240051968A1, “METHODS FOR TREATING SPINOCEREBELLAR ATAXIA TYPE 3” (PTC Therapeutics, Inc., priority 2021, published 2024).

The subject of one assay is ATXN3 pre-mRNA. In words: RT-qPCR Assay to Quantify Exon 4 Skipping in ATXN3 pre-mRNA in Cells. Type of assay: cell-based. The note with it: cells incubated with compound 24 h, 7-point concentration curve, GAPDH control. On the procedure:
RT-qPCR Assay to Quantify Exon 4 Skipping in ATXN3 pre-mRNA in Cells Test compounds were serially diluted 3.16-fold in 100% DMSO to generate a 7-point concentration curve. Aliquots of 0.5 μL of diluted compounds were transferred to a 96-well flat bottom plate by a liquid handler. An aliquot of 0.5 μL DMSO was also transferred to separate wells and used as controls. Duplicate samples were set up for each compound concentration and for the DMSO control.
Cells were thawed and incubated in cell culture media (DMEM, 10% FBS, and 1% antibiotic cocktail) for 72 h. Cells were trypsinized, counted, and re-suspended to a concentration of 100,000 cells/mL in cell culture media. A 100 μL aliquot of the cell suspensions were plated at 10,000 cells per well in the compound containing 96 well microtiter plate and incubated for in a cell culture incubator (37° C., 5% CO2, 100% relative humidity).
After 24 h, media was aspirated from the cells and 50 μL of the RCL2 lysis buffer (10 mM Tris-HCL pH 7.4, 150 mM NaCl, 0.33% IGEPAL® CA-630) was added to each well and incubated at room temperature for 1 min. Chilled nuclease free water (50 μL per well) was added and the plates were immediately transferred on ice. After 1 min on ice, plates were frozen at −80° C. overnight.
Preparation of RT-qPCR Reaction Mixture:
An aliquot of 2 μL/well of the cell lysates was transferred using the liquid handler to the Armadillo 384-Well PCR plate containing 8 μL/well of the RT-qPCR reaction mixture that was prepared as detailed above. The plates were then sealed with MicroAmp™ Optical Adhesive Film followed by spinning down for 1 min and placed in the CFX384 thermocycler (BioRad).
The RT-qPCR was carried out at the following temperatures for the indicated time: • Step 1: 48° C. (30 min) • Step 2: 95° C. (10 min) • Step 3: 95° C. (15 sec) • Step 4: 60° C. (1 min); then, repeated Steps 3 and 4 for a total of 40 cycles.
The percent exon 4 skipping was calculated for each dose of compound treatment using Equations 1 and 2.
Data were fit to a dose response curve and the IC50 was interpolated using XLfit® statistical and curve fitting package.
An IC50 value between >2.0 μM and ≤3.0 μM is indicated by one star (*). […] IC50 value between >0.5 μM and ≤1.0 μM is indicated by four stars (****). An IC50 value ≤0.5 μM is indicated by five stars (*****).

Assay [1] concerns Total ATXN3 (tATXN3) protein. The experiment in a line: Endogenous Total ATXN3 (tATXN3) Protein Assay (MSD immunoassay of cell lysates). As to conditions: cells incubated with compound 48 h; 7-point concentration curve; MSD detection in cell lysate. Type of assay: cell-based. On the procedure:
Endogenous Total ATXN3 (tATXN3) Protein Assay
Meso Scale Discovery (MSD) 96-well or 384-well plates were coated overnight at 4° C. with Ataxin 3 mouse monoclonal antibody (Invitrogen, MA3-082) at a concentration of 0.5 μg/mL in PBS (30 μL per well). Plates were then washed three times with 300 μL wash buffer (0.05% TWEEN®-20, polyethylene glycol sorbitan monolaurate, in PBS) and blocked (Meso Scale Diagnostics, R93BA-1; 5% BSA in PBS) for 2 h at room temperature with rotational shaking and then washed three times with wash buffer.
Test compounds were serially diluted 3.16-fold in 100% DMSO to generate a 7-point concentration curve. Aliquots of 0.5 μL of diluted compounds were transferred to a 96-well flat bottom plate by a liquid handler. An aliquot of 0.5 μL DMSO was also transferred to separate wells and used as controls. Duplicate samples were set up for each compound concentration and for the DMSO control.
Cells were thawed and incubated in cell culture media (DMEM, 10% FBS, and 1% antibiotic cocktail) for 72 h. Cells were trypsinized, counted, and re-suspended to a concentration of 100,000 cells/mL in cell culture media. A 100 μL aliquot of the cell suspensions were plated at 10,000 cells per well in the compound containing 96 well microtiter plate and incubated for in a cell culture incubator (37° C., 5% CO2, 100% relative humidity). After 48 h, the medium was removed and 50-100 μL of lysis buffer (Meso Scale Diagnostics, R60TX-2) containing 1× halt protease inhibitor cocktail of (Thermo Scientific, Halt™ Protease Inhibitor Cocktail, 78430) per well was added to cells to provide a “cell lysate”. The plate was placed on a shaker at 4° C. for 30 minutes, then stored at −80° C.
Cell lysate samples (25 μL) were transferred to the antibody-coated MSD plate and incubated overnight at 4° C. After removal of the lysates, the plate was washed three times with wash buffer, and 25 μL of Ataxin 3 recombinant rabbit monoclonal antibody (Invitrogen, #702788) secondary antibody (diluted to 0.25 μg/mL in 0.05% TWEEN®-20 in blocking buffer) was added to each well and incubated with shaking for 1-2 h at room temperature. Following incubation with the secondary antibody, the wells were rinsed with wash buffer and then […] Anti Rabbit Antibody Goat SULFO-TAG Labeled (Meso Scale Diagnostics, R32AB-1) detecting antibody (diluted to 0.25 μg/mL in 0.05% TWEEN®-20 in blocking buffer) was added to each well and incubated with shaking for 1 h at room temperature. After rinsing three times with wash buffer, 150 μL of Read Buffer T with surfactant (tris-based buffer containing tripropylamine, Meso Scale Diagnostics, R92TC-1) were added to each empty well, and the plate was imaged on a SI 6000 imager (MSD) according to manufacturers' instructions provided for 96- or 384-well plates.

As usually defined, the IC50 is the concentration that inhibits the measured activity by half. Consider `Cc1c(C[C@@H](N)CCF)sc2c(NCc3ccco3)cc(Cl)nc12` [Cpd 95, 2-[(2S)-2-amino-4-fluorobutyl]-5-chloro-N-[(furan-2-yl)methyl]-3-methylthieno[3,2-b]pyridin-7-amine], for which the IC50 (in the assay on ATXN3 pre-mRNA; in assay [1]) was at most 0.5 µM throughout.

`N[C@@H](CCF)Cc1sc2c(NCc3ccco3)cc(Cl)nc2c1Br` [Cpd 97, 2-[(2S)-2-amino-4-fluorobutyl]-3-bromo-5-chloro-N-[(furan-2-yl)methyl]thieno[3,2-b]pyridin-7-amine]: the 50% inhibitory concentration (IC50) (with ATXN3 pre-mRNA; in assay [1]) was at most 0.5 µM throughout.

With `N#CC[C@H](N)Cc1sc2c(NCc3ccco3)cc(Cl)nc2c1Br` [Cpd 103, (3S)-3-amino-4-(3-bromo-5-chloro-7-{[(furan-2-yl)methyl]amino}thieno[3,2-b]pyridin-2-yl)butanenitrile], the 50% inhibitory concentration (IC50) (with ATXN3 pre-mRNA; in assay [1]) was at most 0.5 µM throughout.

With `CSC[C@H](N)Cc1sc2c(NCc3ccco3)cc(Cl)nc2c1C` [Cpd 104, 2-[(2R)-2-amino-3-(methylsulfanyl)propyl]-5-chloro-N-[(furan-2-yl)methyl]-3-methylthieno[3,2-b]pyridin-7-amine], the half-inhibitory concentration (IC50) (in the assay with ATXN3 pre-mRNA; in assay [1]) was at most 0.5 µM each time.

`Cc1c(C[C@@H](N)CC#N)sc2c(NCc3cccs3)cc(Cl)nc12` [Cpd 105, (3S)-3-amino-4-(5-chloro-3-methyl-7-{[(thiophen-2-yl)methyl]amino}thieno[3,2-b]pyridin-2-yl)butanenitrile]: the IC50 (in the assay with ATXN3 pre-mRNA; in assay [1]) was at most 0.5 µM throughout.

With `N#CC[C@H](N)Cc1sc2c(NCc3cccs3)cc(Cl)nc2c1Cl` [Cpd 106, (3S)-3-amino-4-(3,5-dichloro-7-{[(thiophen-2-yl)methyl]amino}thieno[3,2-b]pyridin-2-yl)butanenitrile], the IC50 (with ATXN3 pre-mRNA; in assay [1]) was at most 0.5 µM in each case.

Take `N[C@H](Cc1sc2c(NCc3cccs3)cc(Cl)nc2c1Br)CC(F)F` [Cpd 107, 2-[(2S)-2-amino-4,4-difluorobutyl]-3-bromo-5-chloro-N-[(thiophen-2-yl)methyl]thieno[3,2-b]pyridin-7-amine]: the “IC50, exon 4 skipping in ATXN3 pre-mRNA” value in the assay on ATXN3 pre-mRNA was “inactive”. The IC50 in assay [1] is 1 to 1.5 µM.

As for `Cc1c(C[C@@H](N)CS(C)(=O)=O)sc2c(NCc3ccco3)cc(Cl)nc12` [Cpd 108, 2-[(2R)-2-amino-3-(methanesulfonyl)propyl]-5-chloro-N-[(furan-2-yl)methyl]-3-methylthieno[3,2-b]pyridin-7-amine], the IC50 (with ATXN3 pre-mRNA; in assay [1]) was at most 0.5 µM each time.

On to `C[C@H](N)Cc1sc2c(NCc3ccco3)cc(Cl)nc2c1C#N` [Cpd 109, 2-[(2S)-2-aminopropyl]-5-chloro-7-{[(furan-2-yl)methyl]amino}thieno[3,2-b]pyridine-3-carbonitrile], for which the IC50 (in the assay with ATXN3 pre-mRNA; in assay [1]) was at most 0.5 µM in each case.

With `CS(=O)(=O)C[C@H](N)Cc1sc2c(NCc3ccco3)cc(Cl)nc2c1Cl` [Cpd 113, 2-[(2R)-2-amino-3-(methanesulfonyl)propyl]-3,5-dichloro-N-[(furan-2-yl)methyl]thieno[3,2-b]pyridin-7-amine], the concentration for half-maximal inhibition (IC50) (in the assay on ATXN3 pre-mRNA; in assay [1]) was at most 0.5 µM each time.

Regarding `CSC[C@H](N)Cc1sc2c(NCc3ccco3)cc(Cl)nc2c1Cl` [Cpd 114, 2-[(2R)-2-amino-3-(methylsulfanyl)propyl]-3,5-dichloro-N-[(furan-2-yl)methyl]thieno[3,2-b]pyridin-7-amine], the half-maximal inhibitory concentration (IC50) (in the assay with ATXN3 pre-mRNA; in assay [1]) was at most 0.5 µM throughout.

`Cc1c(C[C@@H](N)C(=O)O)sc2c(NCc3ccco3)cc(Cl)nc12` [Cpd 115, 3-(5-chloro-7-{[(furan-2-yl)methyl]amino}-3-methylthieno[3,2-b]pyridin-2-yl)-D-alanine]: the half-maximal inhibitory concentration (IC50) (in the assay with ATXN3 pre-mRNA; in assay [1]) was at most 0.5 µM in each case.

As to `Cc1c(C[C@@H](N)C(=O)N(C)C)sc2c(NCc3ccco3)cc(Cl)nc12` [Cpd 116, 3-(5-chloro-7-{[(furan-2-yl)methyl]amino}-3-methylthieno[3,2-b]pyridin-2-yl)-N,N-dimethyl-D-alaninamide], the IC50 (in the assay with ATXN3 pre-mRNA; in assay [1]) was at most 0.5 µM throughout.

`CS(=O)(=O)C[C@H](N)Cc1sc2c(NCc3ccco3)cc(Cl)nc2c1Br` [Cpd 117, 2-[(2R)-2-amino-3-(methanesulfonyl)propyl]-3-bromo-5-chloro-N-[(furan-2-yl)methyl]thieno[3,2-b]pyridin-7-amine]: the half-inhibitory concentration (IC50) (with ATXN3 pre-mRNA; in assay [1]) was at most 0.5 µM throughout.

`CSC[C@H](N)Cc1sc2c(NCc3ccco3)cc(Cl)nc2c1Br` [Cpd 118, 2-[(2R)-2-amino-3-(methylsulfanyl)propyl]-3-bromo-5-chloro-N-[(furan-2-yl)methyl]thieno[3,2-b]pyridin-7-amine]: the half-inhibitory concentration (IC50) (with ATXN3 pre-mRNA; in assay [1]) was at most 0.5 µM in each case.

As for `N[C@H](Cc1sc2c(NCc3ccco3)cc(Cl)nc2c1Cl)C(=O)Nc1ccccc1F` [Cpd 120, 3-(3,5-dichloro-7-{[(furan-2-yl)methyl]amino}thieno[3,2-b]pyridin-2-yl)-N-(2-fluorophenyl)-D-alaninamide], the half-inhibitory concentration (IC50) with ATXN3 pre-mRNA is at most 0.5 µM; in assay [1] it was 0.5 to 1 µM.

For `N[C@H](Cc1sc2c(NCc3ccco3)cc(Cl)nc2c1Cl)C(=O)O` [Cpd 121, 3-(3,5-dichloro-7-{[(furan-2-yl)methyl]amino}thieno[3,2-b]pyridin-2-yl)-D-alanine], the half-inhibitory concentration (IC50) was at most 0.5 µM with ATXN3 pre-mRNA and 0.5 to 1 µM in assay [1].

Consider `N[C@H](Cc1sc2c(NCc3ccco3)cc(Cl)nc2c1Cl)C(=O)Nc1ccccc1` [Cpd 122, 3-(3,5-dichloro-7-{[(furan-2-yl)methyl]amino}thieno[3,2-b]pyridin-2-yl)-N-phenyl-D-alaninamide], for which the half-maximal inhibitory concentration (IC50) (in the assay with ATXN3 pre-mRNA; in assay [1]) was at most 0.5 µM throughout.

As to `C#C[C@H](N)Cc1sc2c(NCc3ccco3)cc(Cl)nc2c1C` [Cpd 123, 2-[(2R)-2-aminobut-3-yn-1-yl]-3-methyl-5-chloro-N-[(furan-2-yl)methyl]thieno[3,2-b]pyridin-7-amine], the half-maximal inhibitory concentration (IC50) (in the assay with ATXN3 pre-mRNA; in assay [1]) was at most 0.5 µM each time.

Turning to `C[C@H](F)[C@H](N)Cc1sc2c(NCc3nccs3)cc(Cl)nc2c1Br` [Cpd 125, 2-[(2R,3S)-2-amino-3-fluorobutyl]-3-bromo-5-chloro-N-[(1,3-thiazol-2-yl)methyl]thieno[3,2-b]pyridin-7-amine], the IC50 (in the assay with ATXN3 pre-mRNA; in assay [1]) was at most 0.5 µM each time.
